Measurements from patent US20060154919A1, “Combination of a glycine transporter (GLYT1) inhibitor and an antipsychotic for the treatment of symptoms of schizophrenia as well as its preparation and use thereof” (priority 2004, published 2006).
Entries after “also recorded” stand apart in the source; their conditions may differ.

Tests used:
[1] = system: extracellular glycine in the striatum; assay: Microdialysis: extracellular glycine in the rat striatum; assay type: in vivo; details: for dose-response of extracellular glycine: ascending doses (COMPOUND NO. 1 0.63, 2.5, 10 mg/kg; risperidone 0.16, 0.63, 2.5 mg/kg)
Protocol: (§1) Compounds (as a Na salt) were stored, dissolved, and administered according to detailed instructions accompanying each compound. Compounds were dissolved in a solvent consisting of 10% BCD (beta cyclodextrin) and administered subcutaneously.
(§2) Male Sprague Dawley rats weighing 275-325 g at the start of the experiment were individually housed in a temperature-controlled colony room with a 12-h light/dark cycle. Food and water was available ad libitum throughout the experiment. The housing conditions and care of the animals were in accordance with the “Guide for the Care and Use of Laboratory Animals” (Institute of Laboratory Animal Resources on Life Sciences, National Research Council, 1996).
(§3) Guide cannula were stored in 95% ETOH prior to surgery, whereas surgical tools underwent heat sterilization (250 °C) immediately before each surgery. Rats were anesthetized using a ketamine hydrochloride (100 mg/kg, IP) xylazine (12 mg/kg) mixture. After adequate anesthesia had been determined (using toe and tail pinch procedures), rats were placed into a stereotaxic instrument. The skull region was wiped with a 2% Betadine solution and a rostrocaudal incision was made to expose the surface of the skull. Bilateral guide cannula (20 gauge; Plastics One) were chronically implanted over the medial striatum (A/P: +0.5, M/L: ±2.5, D/V: −2.0; Paxinos & Watson, 1998) and secured using four skull screws and cranioplastic cement. The cannula need to be implanted at an angle to obtain the minimum inter-cannula distance needed for our probe leash used during microdialysis sampling. Following surgery, body temperature was maintained using a heating pad and the rats were monitored until fully conscious. Rats were then individually housed and assessed daily by monitoring general activity, body weight, and feces. Rats were monitored for signs of an infection and cefazolin (100 mg/kg; intramuscular) was available as needed. Notation was made of any animal administered antibiotic.
(§4) Rats were given at least five days to recover prior to microdialysis sampling. Approximately 18 hr prior to sampling, a microdialysis probe (24 gauge; 2-3 mm exposed membrane; 13000 MWCO) encased in a spring leash and attached to a liquid swivel connected to a balancing arm was inserted into the guide cannula of an awake rat. The probe was secured in place by screwing a threaded portion of the probe leash onto the guide cannula. The rat was then placed into a behavioral chamber (Omnitech, Columbus Ohio) equipped with a fan and house light (10W), and food and water was available ad libitum. On the day of the experiment, dialysis buffer consisting of 5 mM glucose, 140 mM NaCl, 1.4 mM CaCl2, 1.2 mM MgCl2, and 0.15% phosphate buffer saline, pH 7.4, was perfused through the probe (2.0 μl/min) at least two hr prior to sample collection. Twenty-min dialysis samples were then collected for two hr to determine basal glycine levels. Rats were then injected (intraperitoneal) with vehicle or one dose of the test compound, and 30-min samples were collected for up to 10 hr. Samples were split for separate chromatographic evaluation of glycine and dopamine, and frozen (−80 °C) until analyzed.
(§5) Rats, with the dialysis probes in place, were given an overdose of pentobarbital, and the brains fixed by intracardiac infusion of PBS-formalin. Coronal brain sections were 100 μM thick and stained with cresyl violet to verify probe placements. Probes were left in place as the animal was perfused in order to check for the presence of blood in the probe tract.
The concentrations of glycine and dopamine in dialysate samples was determined using a Waters Alliance 2690 HPLC system with fluorometeric detection or an ESA coulometric electrochemical detection HPLC system, respectively. Dialyis samples were split between the two systems enabling both dopamine and glycine to be measured in each sample. A Waters Spherisorb ODS2 column (5 μM, 4.6×250 mm) was used to separate the amino acids.

[2] = system: extracellular dopamine in the striatum; assay: Microdialysis: extracellular dopamine in the rat striatum; assay type: in vivo; details: for dose-response of extracellular dopamine: ascending doses (COMPOUND NO. 1 0.63, 2.5, 10 mg/kg; risperidone 0.16, 0.63, 2.5 mg/kg)
Protocol: as §1, §2, §3, §4, §5
For dopamine analysis, samples were placed in an ESA (Chelmsford, Mass.) Model 540 autosampler connected to an HPLC system with electrochemical detection. Separation was achieved by pumping the samples through a 15 cm C18 reversed phase column (ESA, Inc.) and then samples were reduced/oxidized using coulometric detection.

[3] = COMPOUND NO. 1 alone, 10 mg/kg (highest dose), 10 mg/kg
[4] = risperidone alone, 0.16 mg/kg (lowest dose)

| Compound | increase in extracellular glycine [1, 3] [fold] | dose-response of extracellular glycine [1] | reduction in extracellular dopamine ([2]; COMPOUND NO. 1 alone, 0.63 mg/kg (lowest dose)) [%] | effect on extracellular dopamine ([2]; COMPOUND NO. 1 alone, 0.63 mg/kg (lowest dose), 0.63 mg/kg) | effect on extracellular dopamine ([2]; COMPOUND NO. 1 alone, 2.5 mg/kg) | effect on extracellular dopamine [2, 3] | dose-response of extracellular dopamine [2] | threshold dose for elevation in extracellular glycine ([1]; risperidone alone) [mg/kg] | effect on extracellular glycine [1, 4] | increase in extracellular glycine ([1]; risperidone alone, 2.5 mg/kg (highest dose)) [fold] | effect on extracellular glycine ([1]; risperidone alone, at the dose examined in the combination (1.0 mg/kg)) | threshold dose for elevation in extracellular dopamine ([2]; risperidone alone) [mg/kg] | elevation in extracellular dopamine [2, 4] | expected increase in extracellular dopamine ([2]; risperidone alone, 1.0 mg/kg, expected from FIGS. 1C-1D) [%] | increase in extracellular dopamine ([2]; risperidone alone, two higher doses (0.63 and 2.5 mg/kg)) |
| --- | --- | --- | --- | --- | --- | --- | --- | --- | --- | --- | --- | --- | --- | --- | --- |
| CN(C/C=C(/C#Cc1ccc(-c2ccoc2)cc1)c1ccccc1)CC(=O)O [COMPOUND NO. 1] | 2.5 | dose-dependent increase; also recorded: dose-dependent elevation | ~50 | significant reduction; also recorded: reduced extracellular dopamine | normalized; also recorded: returned to normal | remained unaltered; also recorded: without effect | biphasic | – | – | – | – | – | – | – | – |
| Cc1nc2n(c(=O)c1CCN1CCC(c3noc4cc(F)ccc34)CC1)CCCC2 [risperidone, 3-[2-[4-(6-fluoro-1,2-benzisoxazol-3-yl)piperidino]ethyl]-2-methyl-6,7,8,9-tetrahydro-4H-pyrido-[1,2-a]pyrimidin-4-one, reference compound] | – | dose-dependent elevation | – | – | – | – | dose-dependent elevation | 0.16 | without effect | 2.5 | modest rise | 0.16 | approximately 50% | 300 | 3-4 fold |
